pIC50: −log10 of the molar value.
Experiments:
[1] = biological target: TEAD4 (Homo sapiens, UniProt Q15561); assay: TR-FRET (Lipid HTRF) TEAD lipid pocket probe displacement assay, TEAD4; assay type: binding; settings: His-tagged TEAD4, biotinylated lipid pocket probe, 4 hours
Method: (§1) His-tagged TEAD proteins are pre-incubated with TEAD project compounds for 30 minutes or 4 hours at room temperature. Biotinylated lipid pocket probes are then added to the TEAD/Compound mixture and incubated for 60 minutes at room temperature. The lipid pocket probe competes with the test compound for the TEAD lipid pocket until equilibrium is reached. After 60 minutes, Europium labelled anti-His (Perkin Elmer #AD0110) and XL665 labelled streptavidin (CIS Bio 610SAXAC) are added to the TEAD/test compound/lipid pocket mixture and incubated for 30 minutes or 4 hours. TR-FRET values are then measured using an EnVision multi-label plate reader (Perkin Elmer Cat #2104-001 0A.) If the lipid pocket probe binds to TEAD as expected, a TR-FRET signal results from the proximity of anti-His Eu and XL665. If a TEAD lipid pocket binder such as binds and displaces the lipid pocket probe, the disruption of the TEAD:probe interaction results in a decrease in TR-FRET signal. The potency of compounds as TEAD lipid pocket binders is determined by IC50 value generated using a non-linear 4 parameter curve fit.

[2] = biological target: TEAD1 (Homo sapiens, UniProt P28347); assay: TR-FRET (Lipid HTRF) TEAD lipid pocket probe displacement assay, TEAD1; assay type: binding; settings: His-tagged TEAD1, biotinylated lipid pocket probe, 4 hours
Method: as §1

[3] = biological target: TEAD2 (Homo sapiens, UniProt Q15562); assay: biochemical;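 further: TR-FRET competition assay with His-tagged TEAD protein and a biotinylated lipid pocket probe, where probe displacement by compound lowers the signal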
Method: as §1

[4] = biological target: TEAD3 (Homo sapiens, UniProt Q99594); assay: TR-FRET (Lipid HTRF) TEAD lipid pocket probe displacement assay, TEAD3; assay type: binding; settings: His-tagged TEAD3, biotinylated lipid pocket probe, 4 hours
Chain of TEAD3 (Q99594 whole entry, species assumed): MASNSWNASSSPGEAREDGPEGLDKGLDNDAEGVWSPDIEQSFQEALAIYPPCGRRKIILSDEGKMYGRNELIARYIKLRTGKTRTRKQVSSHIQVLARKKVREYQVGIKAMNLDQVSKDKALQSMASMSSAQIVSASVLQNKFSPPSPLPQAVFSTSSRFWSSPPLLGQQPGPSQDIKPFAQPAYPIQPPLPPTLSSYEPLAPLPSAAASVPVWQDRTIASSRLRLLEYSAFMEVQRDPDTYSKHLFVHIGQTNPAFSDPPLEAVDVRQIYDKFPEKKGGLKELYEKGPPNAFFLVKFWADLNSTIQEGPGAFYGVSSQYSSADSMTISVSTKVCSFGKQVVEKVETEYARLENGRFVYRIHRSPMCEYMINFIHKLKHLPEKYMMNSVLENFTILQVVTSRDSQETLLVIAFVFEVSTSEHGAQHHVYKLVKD
Method: as §1

Chain of TEAD2 (Q15562 whole entry, species assumed): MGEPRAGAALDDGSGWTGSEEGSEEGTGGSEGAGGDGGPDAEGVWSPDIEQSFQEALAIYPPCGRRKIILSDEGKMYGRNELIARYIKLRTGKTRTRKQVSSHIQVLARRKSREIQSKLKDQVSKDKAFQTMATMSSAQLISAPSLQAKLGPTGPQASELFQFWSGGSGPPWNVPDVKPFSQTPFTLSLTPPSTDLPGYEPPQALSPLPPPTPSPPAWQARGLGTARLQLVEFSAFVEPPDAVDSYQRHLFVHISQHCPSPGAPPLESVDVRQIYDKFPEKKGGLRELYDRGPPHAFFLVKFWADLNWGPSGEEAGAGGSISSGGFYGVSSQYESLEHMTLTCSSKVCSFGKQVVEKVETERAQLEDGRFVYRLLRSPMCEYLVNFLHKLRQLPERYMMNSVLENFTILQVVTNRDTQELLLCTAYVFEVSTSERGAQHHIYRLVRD
Chain of TEAD1 (P28347 whole entry, species assumed): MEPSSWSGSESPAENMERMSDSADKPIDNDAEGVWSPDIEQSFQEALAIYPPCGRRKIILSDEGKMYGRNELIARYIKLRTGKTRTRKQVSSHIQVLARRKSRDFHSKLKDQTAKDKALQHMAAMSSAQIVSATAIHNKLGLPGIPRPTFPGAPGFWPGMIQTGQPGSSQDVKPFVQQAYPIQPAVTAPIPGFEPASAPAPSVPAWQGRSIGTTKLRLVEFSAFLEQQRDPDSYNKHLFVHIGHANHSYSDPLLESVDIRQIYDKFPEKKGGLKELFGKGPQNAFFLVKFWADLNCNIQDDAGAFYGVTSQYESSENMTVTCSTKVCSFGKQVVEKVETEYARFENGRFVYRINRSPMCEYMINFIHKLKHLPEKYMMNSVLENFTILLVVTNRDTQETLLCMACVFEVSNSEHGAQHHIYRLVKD
Chain of TEAD4 (Q15561 whole entry, species assumed): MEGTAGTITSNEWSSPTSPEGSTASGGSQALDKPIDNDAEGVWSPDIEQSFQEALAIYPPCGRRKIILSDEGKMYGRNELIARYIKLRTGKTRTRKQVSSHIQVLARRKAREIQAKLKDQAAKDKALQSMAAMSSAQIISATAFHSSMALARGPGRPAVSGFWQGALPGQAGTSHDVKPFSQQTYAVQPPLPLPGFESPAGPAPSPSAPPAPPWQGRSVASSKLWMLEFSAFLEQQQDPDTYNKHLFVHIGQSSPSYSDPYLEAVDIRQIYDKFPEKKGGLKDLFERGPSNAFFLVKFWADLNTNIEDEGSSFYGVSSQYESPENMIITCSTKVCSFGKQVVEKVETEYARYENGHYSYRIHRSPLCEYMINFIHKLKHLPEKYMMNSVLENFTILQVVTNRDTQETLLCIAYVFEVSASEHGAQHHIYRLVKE

| Structure (SMILES) | pIC50 [1] | pIC50 [2] | pIC50 [3] | pIC50 [4] |
| --- | --- | --- | --- | --- |
| C=CC(=O)N(C)Cc1cc(-c2ccc(OC(F)(F)F)cc2)c2nccn2c1 [Compound 38, N-methyl-N-[[8-[4-(trifluoromethoxy)phenyl]imidazo[1,2-a]pyridin-6-yl]methyl]prop-2-enamide] | 8.17 | 7.70 | 7.48 | 7.59 |
| C=CC(=O)NCc1cc(-c2ccc(OC(F)(F)F)cc2)c2ncn(C(F)F)c2c1CO [Compound 39, N-[[3-(difluoromethyl)-4-(hydroxymethyl)-7-[4-(trifluoromethoxy)phenyl]benzimidazol-5-yl]methyl]prop-2-enamide] | 7.61 | 8.10 | 8.05 | 7.30 |
| C=CC(=O)NCc1cc(-c2ccc(OC(F)(F)F)cc2)c2cccnc2c1C [Compound 43, N-[[8-methyl-5-[4-(trifluoromethoxy)phenyl]-7-quinolyl]methyl]prop-2-enamide] | 7.80 | 8.00 | 8.01 | 7.66 |
| C=CC(=O)NCc1cc(-c2ccc(OC(F)(F)F)cc2)c2cccnc2c1CO [Compound 44, N-[[8-(hydroxymethyl)-5-[4-(trifluoromethoxy)phenyl]-7-quinolyl]methyl]prop-2-enamide] | 7.27 | 7.96 | 7.80 | 7.74 |
| C=CC(=O)NCc1cc(-c2ccc(OC(F)(F)F)cc2)c2ncccc2c1CO [Compound 50, N-[[5-(hydroxymethyl)-8-[4-(trifluoromethoxy)phenyl]-6-quinolyl]methyl]prop-2-enamide] | 7.47 | 7.92 | 7.96 | 7.43 |
| C=C(F)C(=O)N1CC(c2cc(-c3ccc(OC(F)(F)F)cc3)c3ncn(C)c3c2CO)C1 [Compound 59, 2-fluoro-1-[3-[4-(hydroxymethyl)-3-methyl-7-[4-(trifluoromethoxy)phenyl]benzimidazol-5-yl]azetidin-1-yl]prop-2-en-1-one] | 7.09 | 7.74 | 7.43 | 6.42 |
| C=C(F)C(=O)NCc1cc(-c2ccc(OC(F)(F)F)cc2)c2ncn(C)c2c1CO [Compound 63, 2-fluoro-N-[[4-(hydroxymethyl)-3-methyl-7-[4-(trifluoromethoxy)phenyl]benzimidazol-5-yl]methyl]prop-2-enamide] | 7.10 | 6.96 | 7.12 | 6.51 |
| CN(Cc1cc(-c2ccc(OC(F)(F)F)cc2)c2ncn(C)c2c1CO)C(=O)/C=C/CO [Compound 64, (E)-4-hydroxy-N-[[4-(hydroxymethyl)-3-methyl-7-[4-(trifluoromethoxy)phenyl]benzimidazol-5-yl]methyl]-N-methyl-but-2-enamide] | 7.36 | 6.57 | 6.29 | 6.15 |
| C=C(F)C(=O)NCc1cc(-c2ccc(OC(F)(F)F)cc2)c2c(c1C#N)CCO2 [Compound 67, N-[[4-cyano-7-[4-(trifluoromethoxy)phenyl]-2,3-dihydrobenzofuran-5-yl]methyl]-2-fluoro-prop-2-enamide] | 6.85 | 7.03 | 6.47 | 6.38 |
| C=CC(=O)NCc1nc(-c2ccc(OC(F)(F)F)cc2)c2ncn(C)c2n1 [Compound 69, N-[[9-methyl-6-[4-(trifluoromethoxy)phenyl]purin-2-yl]methyl]prop-2-enamide] | 8.12 | 7.40 | 7.00 | 7.01 |
| C=CC(=O)NCc1nc(-c2ccc(OC(F)(F)F)cc2)c2ncn(C)c2c1CO [Compound 73, N-((7-(hydroxymethyl)-1-methyl-4-(4-(trifluoromethoxy)phenyl)-1H-imidazo[4,5-c]pyridin-6-yl)methyl)acrylamide] | 7.41 | 7.24 | 7.40 | 6.66 |
| C=CC(=O)NCc1cc(-c2ccc(OC(F)(F)F)cc2)c2ncn(C)c2c1C(F)F [Compound 77, N-[[4-(difluoromethyl)-3-methyl-7-[4-(trifluoromethoxy)phenyl]benzimidazol-5-yl]methyl]prop-2-enamide] | 8.60 | 7.96 | 8.40 | 6.96 |
| C=C(F)C(=O)NCc1cc(-c2ccc(OC(F)(F)F)cc2)c2nccnc2c1[C@@H](O)CO [Compound 80, (R)-N-((5-(1,2-Dihydroxyethyl)-8-(4-(trifluoromethoxy)phenyl)quinoxalin-6-yl)methyl)-2-fluoroacrylamide] | 6.13 | 6.89 | 6.96 | 6.08 |
| O=C(NCc1cc(-c2ccc(OC(F)(F)F)cc2)c2nccnc2c1[C@@H](O)CO)C1=CCC1 [Compound 81, (R)-N-((5-(1,2-Dihydroxyethyl)-8-(4-(trifluoromethoxy)phenyl)quinoxalin-6-yl)methyl)cyclobut-1-ene-1-carboxamide] | 7.89 | 7.51 | 7.68 | 6.66 |
| C=CC(=O)NCc1cc(-c2ccc(OC(F)(F)F)cc2)c2nccnc2c1CO [Compound 84, N-((5-(Hydroxymethyl)-8-(4-(trifluoromethoxy)phenyl)quinoxalin-6-yl)methyl)acrylamide] | 7.32 | 7.57 | 7.68 | 7.41 |
| C=CC(=O)NCc1cc(-c2ccc(OC(F)(F)F)cc2)c2nccnc2c1C#N [Compound 85, N-((5-Cyano-8-(4-(trifluoromethoxy)phenyl)quinoxalin-6-yl)methyl)acrylamide] | 7.05 | 7.11 | 6.92 | 6.90 |
| O=C(C1=CCC1)N1CC(c2cc(-c3ccc(OC(F)(F)F)cc3)c3nccnc3c2[C@@H](O)CO)C1 [Compound 86, (R)-Cyclobut-1-en-1-yl(3-(5-(1,2-dihydroxyethyl)-8-(4-(trifluoromethoxy)phenyl)quinoxalin-6-yl)azetidin-1-yl)methanone] | 7.49 | 6.92 | 7.42 | 6.64 |
| O=C(C1=CCC1)N1CC(c2cc(-c3ccc(OC(F)(F)F)cc3)c3nccnc3c2[C@H](O)CO)C1 [Compound 87, (S)-Cyclobut-1-en-1-yl(3-(5-(1,2-dihydroxyethyl)-8-(4-(trifluoromethoxy)phenyl)quinoxalin-6-yl)azetidin-1-yl)methanone] | 7.96 | 7.30 | 7.80 | 6.85 |
| C=CC(=O)N(C)Cc1cc(-c2ccc(OC(F)(F)F)cc2)c2c(c1CO)CCO2 [Compound 88, N-((4-(Hydroxymethyl)-7-(4-(trifluoromethoxy)phenyl)-2,3-dihydrobenzofuran-5-yl)methyl)-N-methylacrylamide] | 8.51 | 8.36 | 8.17 | 8.13 |
| C#Cc1ccc(-c2cc(CNC(=O)C=C)c(CO)c3c2OCC3)cc1 [Compound 93, N-((7-(4-Ethynylphenyl)-4-(hydroxymethyl)-2,3-dihydrobenzofuran-5-yl)methyl)acrylamide] | 6.31 | 6.06 | 6.27 | 5.96 |
| C#Cc1ccc(-c2cc(CN(C)C(=O)C=C)c(CO)c3c2OCC3)cc1 [Compound 94, N-((7-(4-Ethynylphenyl)-4-(hydroxymethyl)-2,3-dihydrobenzofuran-5-yl)methyl)-N-methylacrylamide] | 7.89 | 7.36 | 7.17 | 7.25 |
| C=CC(=O)N(C)Cc1cc(-c2ccc(OC(F)(F)F)cc2)c2c(c1C#N)CCO2 [Compound 95, N-((4-cyano-7-(4-(trifluoromethoxy)phenyl)-2,3-dihydrobenzofuran-5-yl)methyl)-N-methylacrylamide] | 8.42 | 8.07 | 8.06 | 8.02 |
| C=CC(=O)N(CC)Cc1nc(-c2ccc(OC(F)(F)F)cc2)c2ncsc2n1 [Compound 98, N-Ethyl-N-((7-(4-(trifluoromethoxy)phenyl)thiazolo[5,4-d]pyrimidin-5-yl)methyl)acrylamide] | 7.32 | 6.15 | 6.85 | 6.17 |
| C=CC(=O)N1CC(c2nc(-c3ccc(OC(F)(F)F)cc3)c3ncsc3n2)C1 [Compound 99, 1-(3-(7-(4-(Trifluoromethoxy)phenyl)thiazolo[5,4-d]pyrimidin-5-yl)azetidin-1-yl)prop-2-en-1-one] | 8.57 | 8.43 | 8.37 | 8.51 |
| C=CC(=O)NCc1nc(C23CC(C(C)C)(C2)C3)c2ncsc2n1 [Compound 102, N-((7-(3-Isopropylbicyclo[1.1.1]pentan-1-yl)thiazolo[5,4-d]pyrimidin-5-yl)methyl)acrylamide] | 7.64 | 6.92 | 6.51 | 6.96 |
| C=CC(=O)NCc1cc(-c2ccc(OC(F)(F)F)cc2)c2ncsc2c1-c1noc(=O)[nH]1 [Compound 104, N-((7-(5-Oxo-4,5-dihydro-1,2,4-oxadiazol-3-yl)-4-(4-(trifluoromethoxy)phenyl)benzo[d]thiazol-6-yl)methyl)acrylamide] | 7.40 | 7.02 | 7.10 | 7.57 |
| C=CC(=O)NCc1cc(-c2ccc(OC(F)(F)F)cc2)c2ncoc2c1CO [Compound 113, N-((7-(Hydroxymethyl)-4-(4-(trifluoromethoxy)phenyl)benzo[d]oxazol-6-yl)methyl)acrylamide] | 7.51 | 7.62 | 7.62 | 7.36 |
| C=CC(=O)NCc1cc(-c2ccc(OC(F)(F)F)nc2)c2ncoc2c1CO [Compound 114, N-((7-(Hydroxymethyl)-4-(6-(trifluoromethoxy)pyridin-3-yl)benzo[d]oxazol-6-yl)methyl)acrylamide] | 6.13 | 6.32 | 6.46 | 6.15 |
